ChEMBL document CHEMBL1151757, “Synthesis, radiosynthesis, and biological evaluation of fluorine-18-labeled 2beta-carbo(fluoroalkoxy)-3beta-(3'-((Z)-2-haloethenyl)phenyl)nortropanes: candidate radioligands for in vivo imaging of the serotonin transporter with positron emission tomography” (J Med Chem, 2008)

Key:
[1] = Drug uptake in anesthetized cynomolgus monkey brain occipital lobe after 15.5 mins postinjection; assay type: ADME, organism-based, Macaca fascicularis; conditions: in vivo
[2] = Drug uptake in anesthetized cynomolgus monkey brain occipital lobe after 35 mins postinjection; assay type: ADME, organism-based, Macaca fascicularis; conditions: in vivo
[3] = Drug uptake in anesthetized cynomolgus monkey brain occipital lobe after 175 mins postinjection; assay type: ADME, organism-based, Macaca fascicularis; conditions: in vivo
[4] = Drug uptake in anesthetized cynomolgus monkey brain occipital lobe after 197.5 mins postinjection; assay type: ADME, organism-based, Macaca fascicularis; conditions: in vivo
[5] = Drug uptake in anesthetized cynomolgus monkey brain occipital lobe after 235 mins postinjection; assay type: ADME, organism-based, Macaca fascicularis; conditions: in vivo
[6] = Drug uptake in anesthetized cynomolgus monkey brain frontal lobe after 1.5 mins postinjection; assay type: ADME, organism-based, Macaca fascicularis; conditions: in vivo, 0.025 h
[7] = Ratio of drug uptake in occipital lobe to cerebellum in anesthetized cynomolgus monkey after 115 mins postinjection; assay type: ADME, organism-based, Macaca fascicularis; conditions: in vivo
[8] = test system: Putamen; test: Drug uptake in anesthetized cynomolgus monkey brain putamen after 135 mins postinjection; assay type: ADME, organism-based, Macaca fascicularis; conditions: in vivo, 2.25 h
[9] = test system: Putamen; test: Drug uptake in anesthetized cynomolgus monkey brain putamen after 235 mins postinjection; assay type: ADME, organism-based, Macaca fascicularis; conditions: in vivo
[10] = test system: Thalamus; test: Drug uptake in anesthetized cynomolgus monkey brain thalamus after 1.5 mins postinjection; assay type: ADME, organism-based, Macaca fascicularis; conditions: in vivo, 0.025 h
[11] = Ratio of drug uptake in frontal lobe to cerebellum in anesthetized cynomolgus monkey after 145 mins postinjection; assay type: ADME, organism-based, Macaca fascicularis; conditions: in vivo
[12] = test system: Midbrain; test: Drug uptake in anesthetized cynomolgus monkey brain midbrain after 155 mins postinjection; assay type: ADME, organism-based, Macaca fascicularis; conditions: in vivo
[13] = test system: Midbrain; test: Drug uptake in anesthetized cynomolgus monkey brain midbrain after 165 mins postinjection; assay type: ADME, organism-based, Macaca fascicularis; conditions: in vivo, 2.75 h
[14] = test system: Pons; test: Drug uptake in anesthetized cynomolgus monkey brain pons after 3.5 mins postinjection; assay type: ADME, organism-based, Macaca fascicularis; conditions: in vivo
[15] = Ratio of drug uptake in caudate to cerebellum in anesthetized cynomolgus monkey after 12.5 mins postinjection; assay type: ADME, organism-based, Macaca fascicularis; conditions: in vivo
[16] = test system: Pons; test: Drug uptake in anesthetized cynomolgus monkey brain pons after 155 mins postinjection; assay type: ADME, organism-based, Macaca fascicularis; conditions: in vivo
[17] = test system: Pons; test: Drug uptake in anesthetized cynomolgus monkey brain pons after 182.5 mins postinjection; assay type: ADME, organism-based, Macaca fascicularis; conditions: in vivo
[18] = test system: Pons; test: Drug uptake in anesthetized cynomolgus monkey brain pons after 197.5 mins postinjection; assay type: ADME, organism-based, Macaca fascicularis; conditions: in vivo
[19] = test system: Pons; test: Drug uptake in anesthetized cynomolgus monkey brain pons after 202.5 mins postinjection; assay type: ADME, organism-based, Macaca fascicularis; conditions: in vivo, 3.375 h
[20] = test system: Medulla; test: Drug uptake in anesthetized cynomolgus monkey brain medulla after 1.5 mins postinjection; assay type: ADME, organism-based, Macaca fascicularis; conditions: in vivo, 0.025 h
[21] = test system: Medulla; test: Drug uptake in anesthetized cynomolgus monkey brain medulla after 9.5 mins postinjection; assay type: ADME, organism-based, Macaca fascicularis; conditions: in vivo
[22] = test system: Medulla; test: Drug uptake in anesthetized cynomolgus monkey brain medulla after 27.5 mins postinjection; assay type: ADME, organism-based, Macaca fascicularis; conditions: in vivo
[23] = test system: Medulla; test: Drug uptake in anesthetized cynomolgus monkey brain medulla after 75 mins postinjection; assay type: ADME, organism-based, Macaca fascicularis; conditions: in vivo, 1.25 h
[24] = test system: Medulla; test: Drug uptake in anesthetized cynomolgus monkey brain medulla after 125 mins postinjection; assay type: ADME, organism-based, Macaca fascicularis; conditions: in vivo
[25] = test system: Medulla; test: Drug uptake in anesthetized cynomolgus monkey brain medulla after 182.5 mins postinjection; assay type: ADME, organism-based, Macaca fascicularis; conditions: in vivo
[26] = Drug uptake in anesthetized cynomolgus monkey brain cerebellum after 0.5 mins postinjection; assay type: ADME, organism-based, Macaca fascicularis; conditions: in vivo
[27] = Drug uptake in anesthetized cynomolgus monkey brain cerebellum after 1.5 mins postinjection; assay type: ADME, organism-based, Macaca fascicularis; conditions: in vivo, 0.025 h
[28] = Drug uptake in anesthetized cynomolgus monkey brain cerebellum after 3.5 mins postinjection; assay type: ADME, organism-based, Macaca fascicularis; conditions: in vivo
[29] = Drug uptake in anesthetized cynomolgus monkey brain cerebellum after 18.5 mins postinjection; assay type: ADME, organism-based, Macaca fascicularis; conditions: in vivo
[30] = Drug uptake in anesthetized cynomolgus monkey brain cerebellum after 155 mins postinjection; assay type: ADME, organism-based, Macaca fascicularis; conditions: in vivo
[31] = Drug uptake in anesthetized cynomolgus monkey brain cerebellum after 192.5 mins postinjection; assay type: ADME, organism-based, Macaca fascicularis; conditions: in vivo
[32] = Drug uptake in anesthetized cynomolgus monkey brain cerebellum after 197.5 mins postinjection; assay type: ADME, organism-based, Macaca fascicularis; conditions: in vivo
[33] = Ratio of drug uptake in putamen to cerebellum in anesthetized cynomolgus monkey after 215 mins postinjection; assay type: ADME, organism-based, Macaca fascicularis; conditions: in vivo
[34] = test system: Caudate; test: Drug uptake in anesthetized cynomolgus monkey brain caudate after 35 mins postinjection; assay type: ADME, organism-based, Macaca fascicularis, Caudate nucleus; conditions: in vivo
[35] = test system: Caudate; test: Drug uptake in anesthetized cynomolgus monkey brain caudate after 85 mins postinjection; assay type: ADME, organism-based, Macaca fascicularis, Caudate nucleus; conditions: in vivo
[36] = test system: Caudate; test: Drug uptake in anesthetized cynomolgus monkey brain caudate after 115 mins postinjection; assay type: ADME, organism-based, Macaca fascicularis, Caudate nucleus; conditions: in vivo
[37] = test system: Caudate; test: Drug uptake in anesthetized cynomolgus monkey brain caudate after 145 mins postinjection; assay type: ADME, organism-based, Macaca fascicularis, Caudate nucleus; conditions: in vivo
[38] = test system: Caudate; test: Drug uptake in anesthetized cynomolgus monkey brain caudate after 187.5 mins postinjection; assay type: ADME, organism-based, Macaca fascicularis, Caudate nucleus; conditions: in vivo, 3.125 h
[39] = test system: Caudate; test: Drug uptake in anesthetized cynomolgus monkey brain caudate after 192.5 mins postinjection; assay type: ADME, organism-based, Macaca fascicularis, Caudate nucleus; conditions: in vivo
[40] = test system: Caudate; test: Drug uptake in anesthetized cynomolgus monkey brain caudate after 197.5 mins postinjection; assay type: ADME, organism-based, Macaca fascicularis, Caudate nucleus; conditions: in vivo
[41] = test system: Caudate; test: Drug uptake in anesthetized cynomolgus monkey brain caudate after 215 mins postinjection; assay type: ADME, organism-based, Macaca fascicularis, Caudate nucleus; conditions: in vivo
[42] = test system: Putamen; test: Drug uptake in anesthetized cynomolgus monkey brain putamen after 0.5 mins postinjection; assay type: ADME, organism-based, Macaca fascicularis; conditions: in vivo
[43] = test system: Putamen; test: Drug uptake in anesthetized cynomolgus monkey brain putamen after 12.5 mins postinjection; assay type: ADME, organism-based, Macaca fascicularis; parameters: unit not given here; conditions: in vivo
[44] = test system: Putamen; test: Drug uptake in anesthetized cynomolgus monkey brain putamen after 55 mins postinjection; assay type: ADME, organism-based, Macaca fascicularis; parameters: unit not given here; conditions: in vivo
[45] = test system: Thalamus; test: Drug uptake in anesthetized cynomolgus monkey brain thalamus after 95 mins postinjection; assay type: ADME, organism-based, Macaca fascicularis; parameters: unit not given here; conditions: in vivo
[46] = test system: Thalamus; test: Drug uptake in anesthetized cynomolgus monkey brain thalamus after 125 mins postinjection; assay type: ADME, organism-based, Macaca fascicularis; parameters: unit not given here; conditions: in vivo
[47] = test system: Thalamus; test: Drug uptake in anesthetized cynomolgus monkey brain thalamus after 175 mins postinjection; assay type: ADME, organism-based, Macaca fascicularis; parameters: unit not given here; conditions: in vivo
[48] = test system: Thalamus; test: Drug uptake in anesthetized cynomolgus monkey brain thalamus after 182.5 mins postinjection; assay type: ADME, organism-based, Macaca fascicularis; conditions: in vivo
[49] = test system: Thalamus; test: Drug uptake in anesthetized cynomolgus monkey brain thalamus after 207.5 mins postinjection; assay type: ADME, organism-based, Macaca fascicularis; conditions: in vivo
[50] = test system: Thalamus; test: Drug uptake in anesthetized cynomolgus monkey brain thalamus after 215 mins postinjection; assay type: ADME, organism-based, Macaca fascicularis; parameters: unit not given here; conditions: in vivo
[51] = test system: Thalamus; test: Drug uptake in anesthetized cynomolgus monkey brain thalamus after 235 mins postinjection; assay type: ADME, organism-based, Macaca fascicularis; parameters: unit not given here; conditions: in vivo
[52] = test system: Midbrain; test: Drug uptake in anesthetized cynomolgus monkey brain midbrain after 3.5 mins postinjection; assay type: ADME, organism-based, Macaca fascicularis; parameters: unit not given here; conditions: in vivo
[53] = Ratio of drug uptake in midbrain to cerebellum in anesthetized cynomolgus monkey after 145 mins postinjection; assay type: ADME, organism-based, Macaca fascicularis; conditions: in vivo

For `O=C(OCCC[18F])C1C2CCC(CC1c1cccc(/C=C\Br)c1)N2` (stereo not drawn), the Drug uptake [1] was 4.29, the Drug uptake [2] was 4.66 and the Drug uptake [3] was 3.06. The Drug uptake [4] was 2.91, the Drug uptake [5] was 2.53 and the Drug uptake [6] was 0.25. For the same compound, the Ratio [7] was 1.1, the Drug uptake [8] was 4.74 and the Drug uptake [9] was 3.27. The Drug uptake [10] was 0.34, the Ratio [11] was 1 and the Drug uptake [12] was 5.23. The Drug uptake [13] was 5.06, the Drug uptake [14] was 1.87 and the Ratio [15] was 0.7. The Drug uptake [16] was 4.03, the Drug uptake [17] was 3.71 and the Drug uptake [18] was 3.36. For the same compound, the Drug uptake [19] was 3.68, the Drug uptake [20] was 0.42 and the Drug uptake [21] was 5.63. The Drug uptake [22] was 6.12, the Drug uptake [23] was 5.49 and the Drug uptake [24] was 4.99. The Drug uptake [25] was 4.22, the Drug uptake [26] was 0.01 and the Drug uptake [27] was 0.48. The Drug uptake [28] was 2.81, the Drug uptake [29] was 6.08 and the Drug uptake [30] was 2.62. It also gave a Drug uptake [31] of 2.38, a Drug uptake [32] of 2.16 and a Ratio [33] of 1.7. It also gave a Drug uptake [34] of 5.13, a Drug uptake [35] of 5.23 and a Drug uptake [36] of 4.71. The Drug uptake [37] was 4.38, the Drug uptake [38] was 3.83 and the Drug uptake [39] was 3.75. For the same compound, the Drug uptake [40] was 3.62, the Drug uptake [41] was 3.62 and the Drug uptake [42] was 0.01. For the same compound, the Drug uptake [43] was 5.25, the Drug uptake [44] was 5.97 and the Drug uptake [45] was 5.16. For the same compound, the Drug uptake [46] was 4.71, the Drug uptake [47] was 4 and the Drug uptake [48] was 3.94. For the same compound, the Drug uptake [49] was 3.35, the Drug uptake [50] was 3.62 and the Drug uptake [51] was 3.48. For the same compound, the Drug uptake [52] was 2.59 and the Ratio [53] was 1.8.
